According to patent publication EP0377642B1, “HERBICIDES FOR WEED CONTROL IN RICE” (E.I. DU PONT DE NEMOURS AND COMPANY, priority 1987, dated 1989):

Assays:
Assay type in all cases: in vivo
[1] = system: Cyperus species; experiment: Field test, herbicidal efficacy in rice, Thailand, applied 36 days after seeding (Table 1); details: 100=complete control
Description: (§1) Methyl 2-[[[[(4-methoxy-6-methyl-1,3,5-triazin-2-yl)amino]carbonyl]amino]sulfonyl]benzoate (Compound 1) and mixtures thereof with other compounds were applied as a spray (using a hand sprayer) to rice (either transplanted or direct seeded) in several rice growing areas in Southeast Asia and in the U.S. Tables 1-28 contain the results of these tests and clearly exemplify the utility of this invention. The details of each application are included in the appropriate table. [drawing 2]

[2] = system: Sphenoclea zeylanica; experiment: as above; details: 100=complete control
Description: as §1

[3] = system: rice; experiment: Herbicidal efficacy in Indonesia, applied 2 weeks after transplanting (Table 6); details: 2 weeks after application
Description: as §1

[4] = system: Cyperus difformis; experiment: Herbicidal efficacy alone and with 2,4-D in Malaysia, applied 30 days after seeding (Table 8); details: 22 days after treatment
Description: as §1

[5] = system: FIMBRISTYLIS MILIACEA; experiment: as above; details: 22 days after treatment
Description: as §1

[6] = system: Marsilea crenata; experiment: as above; details: 22 days after treatment
Description: as §1

[7] = system: Monochoria vaginalis; experiment: as above; details: 22 days after treatment
Description: as §1

[8] = system: Scirpus grossus; experiment: as above; details: 22 days after treatment
Description: as §1

[9] = system: Sphenoclea zeylanica; experiment: as above; details: 22 days after treatment
Description: as §1

[10] = system: Aeschynomene indica; experiment: Late-post application in Beaumont, Texas, with 0.25% AG-98 (Table 9); details: 70 days after seeding
Description: as §1

[11] = system: Annual sedge (?); experiment: as above; details: 70 days after seeding
Description: as §1

[12] = system: Caperonia castaniifolia; experiment: as above; details: 70 days after seeding
Description: as §1

[13] = system: Commelina communis; experiment: as above; details: 70 days after seeding
Description: as §1

[14] = system: Echinochloa colonum; experiment: as above; details: 70 days after seeding
Description: as §1

[15] = system: Eclipta alba; experiment: as above; details: 70 days after seeding
Description: as §1

[16] = system: Sesbania exaltata; experiment: as above; details: 70 days after seeding
Description: as §1

[17] = system: rice; experiment: as above; details: 70 days after seeding
Description: as §1

[18] = system: Cyperus difformis; experiment: Herbicidal efficacy with 2,4-D in Thailand (Table 17); details: 4 GAI/HA; 14 days after treatment
Description: as §1

[19] = system: Ludwigia linifolia; experiment: as above; details: 4 GAI/HA; 14 days after treatment
Description: as §1

[20] = system: MC; experiment: as above; details: 4 GAI/HA; 14 days after treatment
Description: as §1

[21] = system: Sphenoclea zeylanica; experiment: as above; details: 4 GAI/HA; 14 days after treatment
Description: as §1

[22] = system: rice; experiment: as above; details: 4 GAI/HA; 14 days after treatment
Description: as §1

[23] = system: weeds; experiment: Greenhouse test of Compound 1 and Compound 2, herbicidal efficacy (Table 26); details: rated 24 days after treatment; for % CONTROL OR INJURY AT: Alisma triviale; for % CONTROL OR INJURY AP: Alternanthera philoxeroides; for % CONTROL OR INJURY CD: Cyperus difformis; for % CONTROL OR INJURY SR: Sagittaria rigida
Description: as §1

COC(=O)c1ccccc1S(=O)(=O)NC(=O)Nc1nc(C)nc(OC)n1 [Compound 1, Methyl 2-[[[[(4-methoxy-6-methyl-1,3,5-triazin-2-yl)amino]carbonyl]amino]sulfonyl]benzoate]
Herbicidal efficacy CY 2WAA ([1]; Trial 1, 2 GAI/HA): 33
Herbicidal efficacy CY 2WAA ([1]; Trial 1, 3 GAI/HA): 67
Herbicidal efficacy CY 2WAA ([1]; Trial 1, 4 GAI/HA): 67
Herbicidal efficacy CY 2WAA ([1]; Trial 1, 6 GAI/HA): 67
Herbicidal efficacy CY 2WAA ([1]; Trial 2, 2 GAI/HA): 0
Herbicidal efficacy CY 2WAA ([1]; Trial 2, 3 GAI/HA): 67
Herbicidal efficacy CY 2WAA ([1]; Trial 2, 4 GAI/HA): 33
Herbicidal efficacy CY 2WAA ([1]; Trial 2, 6 GAI/HA): 67
Herbicidal efficacy SZ 2WAA ([2]; Trial 1, 2 GAI/HA): 100
Herbicidal efficacy SZ 4WAA ([2]; Trial 1, 2 GAI/HA): 100
Herbicidal efficacy SZ 6WAA ([2]; Trial 1, 2 GAI/HA): 100
Herbicidal efficacy SZ 2WAA ([2]; Trial 1, 3 GAI/HA): 99
Herbicidal efficacy SZ 4WAA ([2]; Trial 1, 3 GAI/HA): 100
Herbicidal efficacy SZ 6WAA ([2]; Trial 1, 3 GAI/HA): 100
Herbicidal efficacy SZ 2WAA ([2]; Trial 1, 4 GAI/HA): 100
Herbicidal efficacy SZ 4WAA ([2]; Trial 1, 4 GAI/HA): 100
Herbicidal efficacy SZ 6WAA ([2]; Trial 1, 4 GAI/HA): 100
Herbicidal efficacy SZ 2WAA ([2]; Trial 1, 6 GAI/HA): 100
Herbicidal efficacy SZ 4WAA ([2]; Trial 1, 6 GAI/HA): 100
Herbicidal efficacy SZ 6WAA ([2]; Trial 1, 6 GAI/HA): 100
Herbicidal efficacy SZ 2WAA ([2]; Trial 2, 2 GAI/HA): 97
Herbicidal efficacy SZ 4WAA ([2]; Trial 2, 2 GAI/HA): 99
Herbicidal efficacy SZ 6WAA ([2]; Trial 2, 2 GAI/HA): 99
Herbicidal efficacy SZ 2WAA ([2]; Trial 2, 3 GAI/HA): 100
Herbicidal efficacy SZ 4WAA ([2]; Trial 2, 3 GAI/HA): 100
Herbicidal efficacy SZ 6WAA ([2]; Trial 2, 3 GAI/HA): 100
Herbicidal efficacy SZ 2WAA ([2]; Trial 2, 4 GAI/HA): 99
Herbicidal efficacy SZ 4WAA ([2]; Trial 2, 4 GAI/HA): 99
Herbicidal efficacy SZ 6WAA ([2]; Trial 2, 4 GAI/HA): 100
Herbicidal efficacy SZ 2WAA ([2]; Trial 2, 6 GAI/HA): 100
Herbicidal efficacy SZ 4WAA ([2]; Trial 2, 6 GAI/HA): 100
Herbicidal efficacy SZ 6WAA ([2]; Trial 2, 6 GAI/HA): 100
% CONTROL RICE ([3]; 3 GAI/HA): 10%
% CONTROL RICE ([3]; 4 GAI/HA): 10%
% CONTROL RICE ([3]; 6 GAI/HA): 10%
% CONTROL RICE ([3]; 8 GAI/HA): 10%
% CONTROL CD ([4]; 1 GAI/HA): 0%
% CONTROL CD ([4]; 2 GAI/HA): 100%
% CONTROL CD ([4]; 3 GAI/HA): 95%
% CONTROL CD ([4]; 4 GAI/HA): 100%
% CONTROL CD ([4]; 5 GAI/HA): 100%
% CONTROL FM ([5]; 1 GAI/HA): 0%
% CONTROL FM ([5]; 2 GAI/HA): 100%
% CONTROL FM ([5]; 3 GAI/HA): 50%
% CONTROL FM ([5]; 4 GAI/HA): 50%
% CONTROL FM ([5]; 5 GAI/HA): 20%
% CONTROL MC ([6]; 1 GAI/HA): 20%
% CONTROL MC ([6]; 2 GAI/HA): 95%
% CONTROL MC ([6]; 3 GAI/HA): 100%
% CONTROL MC ([6]; 4 GAI/HA): 95%
% CONTROL MC ([6]; 5 GAI/HA): 100%
% CONTROL MV ([7]; 1 GAI/HA): 95%
% CONTROL MV ([7]; 2 GAI/HA): 95%
% CONTROL MV ([7]; 3 GAI/HA): 100%
% CONTROL MV ([7]; 4 GAI/HA): 100%
% CONTROL MV ([7]; 5 GAI/HA): 100%
% CONTROL SG ([8]; 1 GAI/HA): 80%
% CONTROL SG ([8]; 2 GAI/HA): 100%
% CONTROL SG ([8]; 3 GAI/HA): 95%
% CONTROL SG ([8]; 4 GAI/HA): 95%
% CONTROL SG ([8]; 5 GAI/HA): 100%
% CONTROL SZ ([9]; 1 GAI/HA): 0%
% CONTROL SZ ([9]; 2 GAI/HA): 100%
% CONTROL SZ ([9]; 3 GAI/HA): 100%
% CONTROL SZ ([9]; 4 GAI/HA): 100%
% CONTROL SZ ([9]; 5 GAI/HA): 100%
% INJURY OR CONTROL AI ([10]; 3 G/HA): 68%
% INJURY OR CONTROL AI ([10]; 6 G/HA): 62%
% INJURY OR CONTROL AI ([10]; 12 G/HA): 46%
% INJURY OR CONTROL SEDGE ([11]; 3 G/HA): 43%
% INJURY OR CONTROL SEDGE ([11]; 6 G/HA): 56%
% INJURY OR CONTROL SEDGE ([11]; 12 G/HA): 56%
% INJURY OR CONTROL CC ([12]; 3 G/HA): 11%
% INJURY OR CONTROL CC ([12]; 6 G/HA): 19%
% INJURY OR CONTROL CC ([12]; 12 G/HA): 18%
% INJURY OR CONTROL COM ([13]; 3 G/HA): 13%
% INJURY OR CONTROL COM ([13]; 6 G/HA): 24%
% INJURY OR CONTROL COM ([13]; 12 G/HA): 23%
% INJURY OR CONTROL EC ([14]; 3 G/HA): 26%
% INJURY OR CONTROL EC ([14]; 6 G/HA): 30%
% INJURY OR CONTROL EC ([14]; 12 G/HA): 24%
% INJURY OR CONTROL EA ([15]; 3 G/HA): 13%
% INJURY OR CONTROL EA ([15]; 6 G/HA): 23%
% INJURY OR CONTROL EA ([15]; 12 G/HA): 15%
% INJURY OR CONTROL SE ([16]; 3 G/HA): 68%
% INJURY OR CONTROL SE ([16]; 6 G/HA): 62%
% INJURY OR CONTROL SE ([16]; 12 G/HA): 46%
% INJURY OR CONTROL RICE ([17]; 3 G/HA): 3%
% INJURY OR CONTROL RICE ([17]; 6 G/HA): 5%
% INJURY OR CONTROL RICE ([17]; 12 G/HA): 6%
% CONTROL OR INJURY CD [18]: 100%
% CONTROL OR INJURY LL [19]: 87%
% CONTROL OR INJURY MC [20]: 100%
% CONTROL OR INJURY SZ [21]: 100%
% CONTROL OR INJURY RICE [22]: 16.6%
% CONTROL OR INJURY AT ([23]; rate 1 g ai/ha): 80%
% CONTROL OR INJURY AT ([23]; rate 2 g ai/ha): 95%
% CONTROL OR INJURY AT ([23]; rate 4 g ai/ha): 95%
% CONTROL OR INJURY AT ([23]; rate 8 g ai/ha): 95%
% CONTROL OR INJURY AP ([23]; rate 1 g ai/ha): 0%
% CONTROL OR INJURY AP ([23]; rate 2 g ai/ha): 0%
% CONTROL OR INJURY AP ([23]; rate 4 g ai/ha): 60%
% CONTROL OR INJURY AP ([23]; rate 8 g ai/ha): 70%
% CONTROL OR INJURY CD ([23]; rate 1 g ai/ha): 60%
% CONTROL OR INJURY CD ([23]; rate 2 g ai/ha): 60%
% CONTROL OR INJURY CD ([23]; rate 4 g ai/ha): 80%
% CONTROL OR INJURY CD ([23]; rate 8 g ai/ha): 100%
% CONTROL OR INJURY SR ([23]; rate 1 g ai/ha): 90%
% CONTROL OR INJURY SR ([23]; rate 2 g ai/ha): 95%
% CONTROL OR INJURY SR ([23]; rate 4 g ai/ha): 95%
% CONTROL OR INJURY SR ([23]; rate 8 g ai/ha): 95%
